# Results from patent US10047083B2, “Dihydropyrimidinoisoquinolinones and pharmaceutical compositions thereof for the treatment of inflammatory disorders” (GALAPAGOS NV, priority 2011, dated 2018).
# Assays:
# human neutrophils = assay: Human neutrophil migration assay (embelin-induced); format: cell-based; conditions: neutrophils from human buffy coat, 30 min compound pre-incubation, migration towards embelin at EC80 for 1 h, ATPlite readout, read-out: human neutrophil migration inhibition (Neutrophils)
# Procedure: 2. Cellular Assays 2.1. Human Neutrophil Migration Assay
# The effect of agonists or antagonists for GPR84 can therefore be assayed in a neutrophil migration test. In the neutrophil migration assay, neutrophils, freshly isolated from buffy coats from human volunteers, are treated with a compound for 30 minutes. Subsequently, the neutrophils are transferred to the upper wells of a Corning HTS transwell 96 permeable support system, of which the lower wells are filled with a embelin solution at EC80 (concentration which gives 80% of the activity of GPR84). After 1 h of incubation, migration of the neutrophils towards embelin in the lower compartment can be quantified by measuring the ATP-content of the lower wells using the ATPlite luminescence ATP detection assay system (Perkin Elmer, Cat. No.: 436110).
# A human buffy coat is diluted with an equal volume of ice cold DPBS. 20 mL of the diluted buffy coat is gently mixed with 4 mL of ACD buffer (140 mM citric acid, 200 mM sodium citrate and 220 mM dextrose). Then, 12 mL of the 6% dextran/0.9% NaCl solution (15 g dextran T2000 and 2.25 g NaCl dissolved in 250 mL H2O) is added to the mixture and the samples are inverted gently up to 20 times. The total volume was transferred to a new recipient and incubated at room temperature for 1 h for complete separation of the two phases to occur. The yellowish supernatant is then transferred to a clean centrifugation tube and centrifuged for 12 minutes at 1300 rpm and 4° C. After centrifugation, the supernatant is discarded and the remaining cell pellet is rapidly resuspended in 12 mL of ice-cold H2O for red blood cell lysis to occur. After 20 seconds, 4 mL of ice-cold 0.6 M KCl is added. Samples are mixed carefully and centrifuged for 6 minutes at 1300 rpm, 4° C. The supernatant is discarded and the red blood cell lysis procedure is repeated one more time. Subsequently, the cell pellet is resuspended in 4 mL of DPBS and layered over 5 mL of Lymphoprep (Nycomed Pharma, Cat. No.: 1114545) in a 15 mL centrifuge tube. After centrifugation for 12 min at 1300 rpm, 4° C., the supernatant is removed and the cell pellet, containing the neutrophils, is resuspended in 25 mL chemotaxis buffer (RPMI 1640 medium, supplemented with 10 mM HEPES; freshly made for each experiment)
# A cell suspension of 8.9×10^6 cells per milliliter is prepared. 20 μL of compound solution in chemotaxis buffer is added to 180 μL cell suspension. The mixture is incubated at 37° C. for 30 minutes with intermediate resuspension of the cells after 15 minutes. Following this, 70 μL cell suspension is transferred to the upper compartment of a Corning HTS transwell 96 permeable support system with 5.0 μm pore size polycarbonate membrane (Corning, Cat. No.: 3387). The receiver well of the transwell system is then filled with 200 μL chemotaxis buffer containing compound and chemotactic agent (embelin). After incubation at 37° C. in 5% CO2 for 1 h, the upper plate of the transwell system is removed and the cell suspension in the receiver plate is transferred to a 96-well V-bottom plate. 50 μL of DPBS is added to the receiver plate to prevent remaining cells from drying out. The V-bottom plate is centrifuged for 6 minutes at 1500 rpm. The supernatant is removed and the cells are resuspended in 50 μL DPBS. The cells are then transferred back to the receiver plate of the transwell system. After this, 100 μL ATPlite solution (Perkin Elmer, Cat. No: 436110) was added to the cells. The plate is incubated for 10 minutes in the dark, while shaking. […] of cell lysate is then transferred to a white 96-well plate and luminescence is measured. The detected luminescent signal is considered as linearely related to the number of cells having migrated from the upper well to the receiver well.
# GPR84 = target: T1, GPR84 (Homo sapiens, UniProt Q9NQS5); assay: GTPγS binding assay (GPR84); format: biochemical; conditions: membranes from stable cell line over expressing GPR84; 3,3′ di indolylmethane at EC80
# T1 construct: expressed in transfected cells; membranes used
# Procedure: 1.1. Cell Based Assay: GTp-γS Binding Assay.
# The following assay can be used for determination of GPR84 activation.
# The assay is performed in a 96 well plate where the following reagents are added. […] In a last step, 30 μL of a mixture consisting of membranes-GTPγS-SpA beads is added [mixture consists of 20 μg/well membranes derived from stable cell line over expressing GPR84 (membranes are pre-incubated with 0.1 μM GDP for 15 min at 4° C.), 0.1 nM [^35S]GTPγS (Perkin Elmer, NEG030) and 0.5 mg/well PVT-WGA SpA beads (Perkin Elmer, RPNQ0001)]. All components are diluted in assay buffer containing 20 mM HEPES pH 7.4; 5 mM MgCl2; 250 mM NaCl; 0.05% BSA; 75 ug/mL saponin. Reactions are incubated for 90 min at room temperature followed by centrifugation at 2000 rpm during 15 min. Plates are read on a Topcount reader (Perkin Elmer) immediately after centrifugation (readout time, 1 min/well).
# T1 sequence (Q9NQS5 whole entry): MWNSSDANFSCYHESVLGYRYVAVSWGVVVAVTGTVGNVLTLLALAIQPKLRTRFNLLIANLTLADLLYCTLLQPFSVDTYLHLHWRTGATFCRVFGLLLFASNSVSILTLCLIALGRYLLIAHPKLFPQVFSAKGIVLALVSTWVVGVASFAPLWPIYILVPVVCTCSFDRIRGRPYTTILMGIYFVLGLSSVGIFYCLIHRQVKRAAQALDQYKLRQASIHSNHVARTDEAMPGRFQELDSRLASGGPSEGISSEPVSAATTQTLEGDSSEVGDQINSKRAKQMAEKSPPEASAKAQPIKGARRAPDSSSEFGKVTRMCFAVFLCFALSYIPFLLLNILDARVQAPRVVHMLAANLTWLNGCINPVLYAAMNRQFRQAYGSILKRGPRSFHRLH
Structure (SMILES),IC50 (human neutrophils),IC50 (GPR84)
"CN(CC#Cc1ccc2c(c1)CCn1c-2cc(OCC2COCCO2)nc1=O)Cc1ccccc1 (stereo not shown) [Compound 85, 9-[3-(benzyl-methyl-amino)-prop-1-ynyl]-2-([1,4]dioxan-2-ylmethoxy)-6,7-dihydro-pyrimido[6,1-a]isoquinolin-4-one]",0.01 to 100 nM,–
"O=c1nc(OC[C@H]2COCCO2)cc2n1CCc1cc(C#CC3CC3)ccc1-2 [Compound 111, 9-cyclopropylethynyl-2-((R)-1-[1,4]dioxan-2-ylmethoxy)-6,7-dihydro-pyrimido[6,1-a]isoquinolin-4-one]",0.01 to 100 nM,–
"Cc1ccc(-c2ccc3c(c2)CCn2c-3cc(OCC3COCCO3)nc2=O)cn1 (stereo not shown) [Compound 35, 2-([1,4]dioxan-2-ylmethoxy)-9-(6-methyl-pyridin-3-yl)-6,7-dihydro-pyrimido[6,1-a]isoquinolin-4-one]",101 to 500 nM,–
"O=c1nc(OCC2COCCO2)cc2n1CCc1cc(CCc3ccccn3)ccc1-2 (stereo not shown) [Compound 20, 2-([1,4]dioxan-2-ylmethoxy)-9-(2-pyridin-2-yl-ethyl)-6,7-dihydro-pyrimido[6,1-a]isoquinolin-4-one]",0.01 to 100 nM,–
"N#Cc1ccccc1-c1ccc2c(c1)CCn1c-2cc(OCC2COCCO2)nc1=O (stereo not shown) [Compound 4, 2-[2-([1,4]dioxan-2-ylmethoxy)-4-oxo-6,7-dihydro-4H-pyrimido[6,1-a]isoquinolin-9-yl]-benzonitrile]",101 to 500 nM,–
"CCCC#Cc1ccc2c(c1)CCn1c-2cc(OCC2COCCO2)nc1=O (stereo not shown) [Compound 19, 2-([1,4]dioxan-2-ylmethoxy)-9-pent-1-ynyl-6,7-dihydro-pyrimido[6,1-a]isoquinolin-4-one]",0.01 to 100 nM,–
"O=c1nc(OC[C@@H]2COCCO2)cc2n1CCc1cc(C#CC3CC3)ccc1-2 [Compound 122, 9-cyclopropylethynyl-2-((S)-1-[1,4]dioxan-2-ylmethoxy)-6,7-dihydro-pyrimido[6,1-a]isoquinolin-4-one]",0.01 to 100 nM,–
"O=c1nc(OC[C@@H]2COCCO2)cc2n1CCc1cc(OCCF)ccc1-2 [Compound 132, 2-((S)-1-[1,4]dioxan-2-ylmethoxy)-9-(2-fluoro-ethoxy)-6,7-dihydro-pyrimido[6,1-a]isoquinolin-4-one]",–,501 to 1000 nM
"N#Cc1ccc(-c2ccc3c(c2)CCn2c-3cc(OCC3COCCO3)nc2=O)cn1 (stereo not shown) [Compound 59, 5-[2-([1,4]dioxan-2-ylmethoxy)-4-oxo-6,7-dihydro-4H-pyrimido[6,1-a]isoquinolin-9-yl]-pyridine-2-carbonitrile]",–,501 to 1000 nM
"CCn1cc(-c2ccc3c(c2)CCn2c-3cc(OCC3COCCO3)nc2=O)cn1 (stereo not shown) [Compound 95, 2-([1,4]dioxan-2-ylmethoxy)-9-(1-ethyl-1H-pyrazol-4-yl)-6,7-dihydro-pyrimido[6,1-a]isoquinolin-4-one]",–,501 to 1000 nM
"O=c1nc(OCC2COCCO2)cc2n1CCc1cc(-c3ccncc3)ccc1-2 (stereo not shown) [Compound 3, 2-([1,4]dioxan-2-ylmethoxy)-9-pyridin-4-yl-6,7-dihydro-pyrimido[6,1-a]isoquinolin-4-one]",–,501 to 1000 nM
"CN(c1ccc2c(c1)CCn1c-2cc(OC[C@@H]2COCCO2)nc1=O)C1CCCCC1 [Compound 152, 9-(cyclohexyl-methyl-amino)-2-((S)-1-[1,4]dioxan-2-ylmethoxy)-6,7-dihydro-pyrimido[6,1-a]isoquinolin-4-one]",–,501 to 1000 nM
"CC(C)OCCOc1ccc2c(c1)CCn1c-2cc(OC[C@H]2COCCO2)nc1=O [Compound 173, 2-((R)-1-[1,4]Dioxan-2-ylmethoxy)-9-(2-isopropoxy-ethoxy)-6,7-dihydro-pyrimido[6,1-a]isoquinolin-4-one]",–,501 to 1000 nM

# More lines, now with the values ahead:
IC50 (human neutrophils),IC50 (GPR84),Structure (SMILES)
–,101 to 500 nM,"N#Cc1ccncc1-c1ccc2c(c1)CCn1c-2cc(OCC2COCCO2)nc1=O (stereo not shown) [Compound 66, 3-[2-([1,4]dioxan-2-ylmethoxy)-4-oxo-6,7-dihydro-4H-pyrimido[6,1-a]isoquinolin-9-yl]-isonicotinonitrile]"
–,0.01 to 100 nM,"CCC(O)(CC)CCc1ccc2c(c1)CCn1c-2cc(OC[C@@H]2COCCO2)nc1=O [Compound 155, 2-((S)-1-[1,4]dioxan-2-ylmethoxy)-9-(3-ethyl-3-hydroxy-pentyl)-6,7-dihydro-pyrimido[6,1-a]isoquinolin-4-one]"
–,0.01 to 100 nM,"CCc1nc(COc2ccc3c(c2)CCn2c-3cc(OCC3COCCO3)nc2=O)no1 (stereo not shown) [Compound 78, 2-([1,4]dioxan-2-ylmethoxy)-9-(5-ethyl-[1,2,4]oxadiazol-3-ylmethoxy)-6,7-dihydro-pyrimido[6,1-a]isoquinolin-4-one]"
–,101 to 500 nM,"NC(=O)c1ccc(F)c(-c2ccc3c(c2)CCn2c-3cc(OCC3COCCO3)nc2=O)c1 (stereo not shown) [Compound 50, 3-[2-([1,4]dioxan-2-ylmethoxy)-4-oxo-6,7-dihydro-4H-pyrimido[6,1-a]isoquinolin-9-yl]-4-fluoro-benzamide]"
–,101 to 500 nM,"O=c1nc(OC[C@@H]2COCCO2)cc2n1CCc1cc(NC3CCCCC3)ccc1-2 [Compound 145, 9-cyclohexylamino-2-((S)-1-[1,4]dioxan-2-ylmethoxy)-6,7-dihydro-pyrimido[6,1-a]isoquinolin-4-one]"
–,101 to 500 nM,"C=CCOc1ccc2c(c1)CCn1c-2cc(OCC2COCCO2)nc1=O (stereo not shown) [Compound 1, 9-allyloxy-2-(-1-[1,4]dioxan-2-ylmethoxy)-6,7-dihydro-pyrimido[6,1-a]isoquinolin-4-one]"
–,0.01 to 100 nM,"CCCCC#Cc1ccc2c(c1)CCn1c-2cc(OCC2COCCO2)nc1=O (stereo not shown) [Compound 84, 2-([1,4]dioxan-2-ylmethoxy)-9-hex-1-ynyl-6,7-dihydro-pyrimido[6,1-a]isoquinolin-4-one]"
–,101 to 500 nM,"O=c1nc(OCC2COCCO2)cc2n1CCc1cc(C#CCn3ccnc3)ccc1-2 (stereo not shown) [Compound 113, 2-([1,4]Dioxan-2-ylmethoxy)-9-(3-imidazol-1-yl-prop-1-ynyl)-6,7-dihydro-pyrimido[6,1-a]isoquinolin-4-one]"
–,0.01 to 100 nM,"O=c1nc(OCC2COCCO2)cc2n1CCc1cc(C#CC3CCCC3)ccc1-2 (stereo not shown) [Compound 81, 9-cyclopentylethynyl-2-([1,4]dioxan-2-ylmethoxy)-6,7-dihydro-pyrimido[6,1-a]isoquinolin-4-one]"
–,0.01 to 100 nM,"O=c1nc(OCC2COCCO2)cc2n1CCc1cc(OCc3ncc(-c4ccccc4)o3)ccc1-2 (stereo not shown) [Compound 75, 2-([1,4]dioxan-2-ylmethoxy)-9-(5-phenyl-oxazol-2-ylmethoxy)-6,7-dihydro-pyrimido[6,1-a]isoquinolin-4-one]"
–,101 to 500 nM,"NC(=O)c1cc(F)cc(-c2ccc3c(c2)CCn2c-3cc(OCC3COCCO3)nc2=O)c1 (stereo not shown) [Compound 51, 3-[2-([1,4]dioxan-2-ylmethoxy)-4-oxo-6,7-dihydro-4H-pyrimido[6,1-a]isoquinolin-9-yl]-5-fluoro-benzamide]"
–,0.01 to 100 nM,"COC(C)CCc1ccc2c(c1)CCn1c-2cc(OC[C@@H]2COCCO2)nc1=O (stereo partly drawn) [Compound 148, 2-((S)-1-[1,4]dioxan-2-ylmethoxy)-9-(3-methoxy-butyl)-6,7-dihydro-pyrimido[6,1-a]isoquinolin-4-one]"
